Data reported in patent publication US20260345584A1, “METHODS AND PHARMACEUTICAL COMPOSITIONS FOR TREATING CHEMOTHERAPY-INDUCED PERIPHERAL NEUROPATHY WITH EG5 INHIBITORS” (UNIVERSITY OF MIAMI, priority 2023, published 2026).

Tests used:
[1] = test system: caudal fin keratinocytes (dfMTs); test: dfMT formation (detyrosinated fasciculated looped microtubules) in zebrafish caudal fin keratinocytes; format: in vivo
Procedure: (§1) The stock solution was divided into 20-30 μl aliquots and stored at −20 °C until use (maximal 6 months). Immediately prior to use, paclitaxel was diluted in Ringer's solution and added to dechorionated larval zebrafish. The larval fish were placed individually or in small groups into wells of a 12-well plate containing the treatment solutions. The control group was 0.05% DMSO. Plates were incubated at 28.5 °C and protected from light. Treatment lengths are indicated in the Drawings, Description of the Drawings, and Examples where appropriate. […] EMD534085, Eg5 inhibitor (MedChemExpress, Cat. No. HY-15000) was diluted in 100% DMSO to make a 10 mM stock solution and stored at −20 °C. […] The solutions were exchanged every 48 hr.
(§2) Larval fish were transferred into […] glass vials and fixed in 4% paraformaldehyde (PFA)/1× Phosphate-buffered saline (PBS) for 1.5 hr at room temperature, with gentle rocking. Following a 5-minute incubation in 1×PBS+0.1% Tween-20 (PBST), zebrafish were permeabilized in 1×PBS+0.1% Triton X-100 for 10-30 min. Larval fish were transferred into 2 ml reaction tubes and incubated in blocking buffer (1×PBST+5% BSA) for 30 min at room temperature, with rocking. Larval fish were further incubated overnight in antibody solution (Millipore Sigma, Cat. No. AB3201, 1:300 rabbit anti-GluTub; Sigma, Cat No. T6793, 1:500 mouse anti-acetylated tubulin) in blocking buffer at 4 °C, on a rotator. The next morning, larval fish were transferred into 6-well plates and washed 4×15 min in 1×PBST at room temperature, with rocking. This was followed by incubation in secondary antibody (goat anti-rabbit Cy5, Abcam, Cat. No. ab97077; goat anti-mouse Cy3, Abcam, Cat. No. ab97035) and 1:10,000 Hoechst 33342 (ThermoFisher Scientific, Cat. No. 62249, 20 mM solution) in blocking buffer for 1 hr at room temperature, with rocking. Fish were covered to avoid bleaching. Fish were washed for 4×15 min in 1×PBST at room temperature, with rocking, and immediately mounted for imaging on glass bottom petri dishes (Spectrum Laboratory Products, Cat. No. 750-10403-UE) using 1% agarose (Thermo Fisher Scientific, Cat. No. 16520050). A 1:200 dilution was used for mouse alpha-tubulin antibody (Proteintech, Cat. No. 66031-1) and a 1:1,000 dilution of donkey anti-mouse IgG Alexa488 (ThermoFisher Scientific, Cat. No. A-21202) for secondary detection. For Nox1 immunostaining, a 1:300 dilution of primary antibody (Anti-NOX1 Rabbit Polyclonal Antibody, Avantar, Cat. No. 102164-796) and a 1:1,000 dilution of secondary goat anti-rabbit Cy2 (Abcam, Cat. No. ab6940) antibody was used. Eg5 antibody (Abcam, Cat. No. 61199) was used at a 1:100 and secondary goat anti-rabbit Cy2 (Abcam, Cat. No. ab6940) at 1:1,000 dilution.
CRISPR oligos targeting kif11 were designed using the IDT CRISPR design tool (https://www.idtdna.com/site/order/designtool/index/CRISPR_CUSTOM). The oligo (5′-[…] (SEQ ID NO: 21) was designed to anneal within exon 5 of 23 exons total in zebrafish kif11 with expected mutations ~ position 270 bp in the sequenced region using the following primers for PCR amplification: Fwd 5′-[…]-3′ (SEQ ID NO: 22) and Rev 5′-[…]-3′ (SEQ ID NO: 23). The forward primer was used for sequencing and yielded deletions in transiently injected embryos, as shown in example below in which single zebrafish were sequenced (FIG. 10).
The CRISPR oligo was injected using the Alt-R system (IDT, https://www.idtdna.com/pages/technology/crispr/crispr-genome-editing/Alt-R-systems/cas9), which has provided highly reliable and efficient zebrafish knockout results as used herein. The IDT-recommended protocol (below) was used for CRISPR oligo preparations. Fertilized eggs were injected ~15 minutes post fertilization with CRISPR oligos to ensure maximal efficiency.
Cell counting in the caudal fin was performed in three 100 μm^2 boxes in the dorsal, medial and ventral caudal fin (~100 μm from the edge). […]

cutaneous sensory axons = test: Axon branch number in caudal fin (acetylated tubulin staining); format: in vivo, zebrafish; conditions: for axon branch number: 96 hr; for axon branches in the caudal fin: 96 hr paclitaxel
Procedure: as §1, §2
Axon branch number quantifications were performed by drawing a 50 μm line across the dorsal, medial, and ventral caudal fin edge region at a distance of 100 μm parallel to the fin edge (which was determined to be the most reliable region to quantify distal branch numbers). Axons traversing this line were counted and averaged per treatment group. Axonal fluorescence measurements were taken using the Imaris Spots function by manually placing spots along the axon and using the fluorescence intensity profile measurements MatLab tool.
Stretching was performed after 96 hr treatment, followed by 2 hr post-stretch fixation, and staining for detection of acetylated tubulin in axons.
To further validate Eg5 as the pharmacological target of EMD534085 in axon regeneration, zebrafish injected with kif11 CRISPR oligo were also analyzed.

[2] = test system: epidermal keratinocytes (detyrosinated microtubules); test: Hind paw pad skin GluTub/DAPI histology in mice; format: in vivo, mouse; conditions: 24 mg/kg paclitaxel i.p.
Procedure: Paws and back skin were collected at predetermined time points, placed in 10% formalin, and stored overnight at 4 °C. Samples were embedded in paraffin and sectioned at 7 μm, deparaffinized, washed with PBS, and incubated at room temperature for 5 min in 0.1% Triton X-100 in PBS and then blocked for 30 min (5% BSA). Sections were incubated with primary antibody diluted in blocking solution, overnight at 4 °C in a humidity chamber. Following PBS washes, sections were incubated for 1 h at room temperature with a secondary antibody. Tissues were mounted and assessed for staining. Antibodies used were against detyrosinated tubulin Millipore AB3201, p-KIF11 Invitrogen PA5-38647, alpha-tubulin Proteintech 66031-1-Ig, mouse Alexa Fluor 488 Invitrogen A21202, and rabbit Alexa flour 546 Invitrogen A10040. DAPI was used for nuclei counterstaining.
Immunofluorescence staining was performed with a widefield microscopy using a Plan-Apochromatix 100× objective lens (oil immersion, numerical aperture [NA]1.4), 20× and 10× objective lens on inverted Zeiss Axio Observer Z1 using AxioVision 4.8 software. Images were acquired using a monochrome Zeiss Axio Cam MRm CCD camera. Images were processed with the NIH Image J software.
These mice were then sacrificed and the skin of the hind paw pad was fixed in 4% paraformaldehyde, followed by sectioning and staining with 1) anti-GluTub (to detect detyrosinated microtubules) and 2) DAPI to detect nuclei.

[3] = alone or with EMD534085 20 mg/kg x3

## CN(C)CCNC(=O)NC[C@H]1CC[C@@H]2[C@H](O1)c1cc(C(F)(F)F)ccc1N[C@H]2c1ccccc1 [EMD534085]
[1]; 25 μM EMD534085 alone
  animals with dfMTs: 0%
[1]; EMD534085 alone, 96 hr
  number of dfMT-harboring keratinocytes per animal: 0±0 cells/animal
Cutaneous sensory axons; EMD534085 alone
  axon branch number: 10.25±0.47 branches/50 μm
[2]; [3]
  number of epidermal keratinocytes with dMT: The increase was dampened when paclitaxel was injected with EMD534085

## CC(=O)O[C@H]1C(=O)[C@@]2(C)[C@H]([C@H](OC(=O)c3ccccc3)[C@]3(O)C[C@H](OC(=O)[C@H](O)[C@@H](NC(=O)c4ccccc4)c4ccccc4)C(C)=C1C3(C)C)[C@]1(OC(C)=O)CO[C@@H]1C[C@@H]2O [paclitaxel]
[1]; 100 nM paclitaxel
  dfMT-positive keratinocytes: 0.4±0.21 dfMT-positive keratinocytes/100 μm^2
[1]; 100 nM paclitaxel, alone or with 25 μM EMD534085
  animals with dfMTs: 20%
[1]; 100 nM paclitaxel, alone or with 25 μM EMD534085, 96 hr
  number of dfMT-harboring keratinocytes per animal: 0.4±0.21 cells/animal
[1]; 22 μM paclitaxel, 48 hr
  animals with dfMT: ~ 45%
  keratinocytes with dfMTs: 3.64±1.28 keratinocytes/100 μm^2
[1]; 22 μM paclitaxel, 96 hr
  keratinocytes with dfMTs: 7.7±1.6 keratinocytes/100 μm^2
[1]; 22 μM paclitaxel, 96 hr (FIG. 1I)
  animals with dfMT: ~ 90%
[1]; 22 μM paclitaxel, alone or with 25 μM EMD534085
  animals with dfMTs: 65.22%
[1]; 22 μM paclitaxel, alone or with 25 μM EMD534085, 96 hr
  number of dfMT-harboring keratinocytes per animal: 6.957±1.49 cells/animal
[1]; 3 hr paclitaxel
  dfMT presence: never
Cutaneous sensory axons; 100 nM paclitaxel, alone or with 48 hr EMD534085
  axon branch number: 9.86±0.43 branches/50 μm
Cutaneous sensory axons; 22 μM paclitaxel, alone or with EMD534085
  axon branch number: 7.54±0.56 branches/50 μm
Cutaneous sensory axons; cyba−/− fish
  axon branches in the caudal fin: no change was found within the cyba−/− group
Cutaneous sensory axons; paclitaxel-treated and stretched cyba−/− mutants
  axon degeneration after stretching: rescued in paclitaxel-treated and stretched cyba−/− mutants
Cutaneous sensory axons; wildtype
  axon branches in the caudal fin: a decrease in axon branches
[2]
  GluTub fluorescence: increased GluTub fluorescence
[2]; [3]
  brittle skin / empty regions in the stratum spinosum: brittle skin in the stratum spinosum
  number of epidermal keratinocytes with dMT: an increase with paclitaxel treatment
